Key:
colitis = conditions: rats, colitis by intraluminal trinitrobenzene sulfonic acid in 50% ethanol; cited from earlier work
[1] = test system: infarct size in the heart; conditions: rabbits, cited from earlier work
TANK-2 enzyme = biological target: T1, TANK-2 enzyme (Homo sapiens, UniProt Q9H2K2); assay: In vitro scintillation proximity assay (SPA) for TANK-2 inhibitory activity; format: biochemical; conditions: auto-poly(ADP-ribosyl)ation, [3H]-NAD+, 96- or 384-well Ni Flash plates; read-out: in vitro SPA TANK-2 pIC50 (converted)
T1 construct: inferred from capture on Ni-coated flash plate; made in house
T1 sequence (Q9H2K2 1-1166): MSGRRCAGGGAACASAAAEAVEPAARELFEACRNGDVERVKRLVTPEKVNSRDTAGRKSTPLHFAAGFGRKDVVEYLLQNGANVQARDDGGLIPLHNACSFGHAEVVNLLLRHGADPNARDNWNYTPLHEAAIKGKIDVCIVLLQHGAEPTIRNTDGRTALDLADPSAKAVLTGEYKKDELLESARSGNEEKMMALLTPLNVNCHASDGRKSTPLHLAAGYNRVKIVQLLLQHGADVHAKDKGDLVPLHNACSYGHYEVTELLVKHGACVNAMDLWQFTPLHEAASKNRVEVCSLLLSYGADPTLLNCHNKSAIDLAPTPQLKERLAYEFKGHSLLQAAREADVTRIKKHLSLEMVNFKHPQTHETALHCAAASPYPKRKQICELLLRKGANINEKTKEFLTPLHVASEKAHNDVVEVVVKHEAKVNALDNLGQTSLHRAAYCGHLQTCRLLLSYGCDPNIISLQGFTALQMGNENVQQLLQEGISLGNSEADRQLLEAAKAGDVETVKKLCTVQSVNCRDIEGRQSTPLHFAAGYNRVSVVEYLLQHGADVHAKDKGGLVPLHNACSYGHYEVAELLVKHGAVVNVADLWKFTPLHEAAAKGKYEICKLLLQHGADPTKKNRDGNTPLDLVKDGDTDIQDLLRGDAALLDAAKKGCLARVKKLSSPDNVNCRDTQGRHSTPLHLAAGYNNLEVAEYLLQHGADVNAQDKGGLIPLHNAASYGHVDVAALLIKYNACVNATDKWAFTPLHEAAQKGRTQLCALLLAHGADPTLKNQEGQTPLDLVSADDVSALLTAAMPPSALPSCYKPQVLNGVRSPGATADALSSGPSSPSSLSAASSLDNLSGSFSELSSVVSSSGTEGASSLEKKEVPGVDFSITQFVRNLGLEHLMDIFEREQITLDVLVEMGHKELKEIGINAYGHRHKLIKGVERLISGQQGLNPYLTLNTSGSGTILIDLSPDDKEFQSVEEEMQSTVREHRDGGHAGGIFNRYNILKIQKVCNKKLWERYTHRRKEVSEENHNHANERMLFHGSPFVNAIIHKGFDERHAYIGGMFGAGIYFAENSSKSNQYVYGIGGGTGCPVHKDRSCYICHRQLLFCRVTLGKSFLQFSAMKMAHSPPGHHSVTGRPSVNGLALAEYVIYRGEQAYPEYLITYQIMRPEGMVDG
Protocol: In Vitro Scintillation Proximity Assay (SPA) for TANK-2 Inhibitory Activity
Compounds of the present invention were tested in an in vitro assay based on SPA technology with Ni Flash plates (96 or 384 well).
In principle, the assay relies upon SPA technology for the detection of auto-poly(ADP-ribosyl)ation of TANK-2 protein using [^3H]-nicotinamide adenine dinucleotide ([^3H]-NAD^+) as ADP-ribosyl donor.
A stock solution of [^3H]-NAD^+/NAD was made by adding 64.6 μl of [^3H]-NAD^+ (0.1 mCi/ml, supplier: Perkin Elmer) and 46.7 μl NAD-stock (10.7 mM, stored at −20° C., supplier Roche) to 1888.7 μl assay buffer (60 mM Tris/HCl, pH 7.4; 0.9 mM DTT; 6 mM MgCl2). The TANK-2 enzyme was produced as described in EP1238063. 60 μl of assay buffer, together with 1 μl of compound in DMSO, 20 μl of [^3H]-NAD^+/NAD and 20 μl of TANK-2 enzyme (final concentration 6 μg/ml) was added per well into a 96-well Ni-coated flash plate (Perkin Elmer). After incubation of the mixture for 120 min. at room temperature, the reaction was terminated by adding 60 μl of stopsolution (42.6 mg NAD in 6 ml H2O). The plates were covered with a plate sealer and placed in a TopCountNXT™ (Packard) for scintillation counting. Values were expressed as counts per minute (cpm). For each experiment, controls (containing TANK-2 enzyme and DMSO without compound), a blank incubation (containing DMSO but no TANK-2 enzyme or compound) and samples (containing TANK-2 enzyme and compound dissolved in DMSO) were run in parallel. All compounds tested were dissolved and eventually further diluted in DMSO. In first instance, compounds were tested at a concentration of 10^−5M. […] In each test, the blank value was subtracted from both the control and the sample values. The control sample represented maximal TANK-2 enzyme activity. For each sample, the amount of cpm was expressed as a percentage of the mean cpm value of the controls. When appropriate, IC50-values (concentration of the drug, needed to reduce the TANK-2 enzyme activity to 50% of the control) were computed using linear interpolation between the experimental points just above and below the 50% level. Herein the effects of test compounds are expressed as pIC50 (the negative log value of the IC50-value). As reference compounds, 3-aminobenzamide and 4-amino-1,8-naphtalimide were included to validate the SPA assay. Herein the assay was described using 96-well plates. In the assay using 384-well plates the same final concentrations were used and volumes were adapted.

NC(=O)c1cccc(N)c1 [3-amino-benzamide]
effect on inflammatory response and distal colon (colitis): reduced the inflammatory response | reduction in infarct size in the heart ([1]; single injection 10 mg/kg, one minute before occlusion or before reperfusion): 32-42%

O=C1NC(CCN2CCC(C(=O)c3ccc(F)cc3)CC2)Nc2ccccc21 (stereo not shown) [Compound 1]
IC50 (TANK-2 enzyme): > 10 µM

Oc1cccc2c(O)nccc12 [1,5-dihydroxyisoquinoline]
reduction in infarct size ([1]; single injection 1 mg/kg): 38-48%
